system: 8×TBD luciferase reporter (YAP) in HEK293T cells; test: YAP Reporter Assay (8×TBD firefly luciferase reporter); assay type: cell-based; settings: Homo sapiens, HEK-293T; HEK293T cells stably transfected with 8×TBD luciferase reporter and pRLTK; 24-hr incubation; firefly luciferase activity; read-out: Firefly Luciferase IC50
Protocol: HEK293T cells stably transfected with 8×TBD luciferase reporter and pRLTK in 384-well plates were treated with the test compounds, starting from 3 μM (final concentration in assay plate), 1:3 dilution, and 10 points in quadruplicates. Post 24-hr incubation with compounds at 37° C. and 5% CO2, cells were lysed and 8×TBD-driven firefly luciferase and control TK-driven renilla luciferase activities were measured using Promega Dual-Luciferase Reporter Assay System.
Reagents: The reagents used for this study are: DMEM: Invitrogen #11960077, Dual-Glo Luciferase Assay System: Promega-E2980, Puromycin Dihydrochloride: Invitrogen-A1113803, 384-well plate: PerkinElmer-6007480, L-GLUTAMINE: Invitrogen-25030164, Hygromycin B: Invitrogen-10687010, and Penicillin-Streptomycin: Merk-TMS-AB2-C
Media: The media used for this assay were: Culture Medium: DMEM+1 ug/mL puromycin+200 ug/mL hygromycin (with 10% FBS+1 mM L-glutamine); and Assay Medium: DMEM (with 10% FBS+1 mM L-glutamine+1×P/S).
Cell Plating: The appropriate media was warmed at 37° C. by water bath: Culture Medium, Assay Medium, 1*D-PBS, 0.05% trypsin-EDTA. The cells were trypsinized after removing all media, then washed with 1*sterile D-PBS and then with 2 ml 0.05% trypsin-EDTA. The cells were then incubated at RT for one minute. Then 10 ml/75 cm2 flask Assay Medium was added to each flask. Using a 10 ml pipette, the cells were then gently resuspended in the media, until the clumps completely disappeared. The cells were then transferred into 50 ml centrifuge tubes and were centrifuged at 800 rpm for 5 mins. The medium was removed and the cells were resuspended with Assay Medium. An aliquot of cells was used to count the cell density (cells/ml). The cell suspension was then diluted with Assay Medium to a concentration of 6×10^4 cells/ml. 50 ul cells suspension was then plated to 384-well plate (PerkinElmer-6007480), 3×10^3 cells/well and the cells were incubated in an incubator at 37° C., 5% CO2.
Compound Treatment: In the afternoon (incubation of the plate with 3-4 hrs), the test compounds were added by Echo, starting from 3 uM (final concentration in the assay plate), 1:3 dilution, 10 points, quadruplicates. The plate was placed at 37° C., 5% CO2 incubator for 24 hrs.
Detection: The Dual-Glo Luciferase Reagent was prepared by transferring the contents of one bottle of Dual-Glo Luciferase Buffer to one bottle of Dual-Glo Luciferase Substrate to create the Dual-Glo Luciferase Reagent. Mixing was performed by inversion until the substrate was thoroughly dissolved. After mixing, the reagent was aliquoted into 15 ml tubes. In the afternoon (24 hrs post compound treatment), the DMEM+medium in the 384 well plates were aspirated by Microplate Washer.
Measuring firefly luciferase activity: 20 ul Dual-Glo Luciferase Reagent was added to the 384-well plates. The plates were protected from light to prevent interference with the assay. The plates were shaken for 1 min followed centrifuging plates at 1000 rpm for 30 seconds. After waiting at least 10 minutes, the firefly luminescence was measured by Envision.
Measuring renilla luciferase activity: 20 ul Stop-Glo Reagent was added to the 384-well plates. The plates were shaken for 1 min and then centrifuged at 1000 rpm for 30 seconds. After waiting at least 10 minutes, the renilla luminescence was measured by Envision.
Compound IC50 and maximum inhibition on the firefly luciferase and renilla luciferase activities were reported separately.

| SMILES | IC50 |
| --- | --- |
| C[C@@H](NC(=O)c1ccc2c(Oc3ccc(C(F)(F)F)cc3)cccc2c1)C1CCN(C)CC1 [Compound 157, (R)-N-(1-(1-methylpiperidin-4-yl)ethyl)-5-(4-(trifluoromethyl)phenoxy)-2-naphthamide] | < 100 nM |
| C[C@@H](NC(=O)c1ccc2c(Oc3ccc(C(F)(F)F)cc3)cccc2c1)C1CN(C)C1 [Compound 126, (R)—N-(1-(1-methylazetidin-3-yl)ethyl)-5-(4-(trifluoromethyl)phenoxy)-2-naphthamide] | 100 to 1000 nM |
| C[C@H](NC(=O)c1ccc2c(Oc3ccc(C(F)(F)F)cc3)cccc2c1)C1(F)CNC1 [Compound 151, (S)-N-(1-(3-fluoroazetidin-3-yl)ethyl)-5-(4-(trifluoromethyl)phenoxy)-2-naphthamide] | 1000 to 3000 nM |
| C[C@H](CO)NC(=O)c1ccc2c(Oc3ccc(C(F)(F)F)cc3)nccc2c1 [Compound 12, N-[(1R)-2-hydroxy-1-methyl-ethyl]-1-[4-(trifluoromethyl)phenoxy]isoquinoline-6-carboxamide] | < 100 nM |
| C[C@@H](NC(=O)c1cnc2c(Oc3ccc(C(F)(F)F)cc3)cccc2c1)c1cccc2nc[nH]c12 [Compound 103, (R)—N-(1-(1H-benzo[d]imidazol-7-yl)ethyl)-8-(4-(trifluoromethyl)phenoxy)quinoline-3-carboxamide] | 100 to 1000 nM |
| C[C@H](NC(=O)c1ccc2c(Oc3ccc(C(F)(F)F)cc3)cccc2c1)C(N)=O [Compound 50, (S)—N-(1-amino-1-oxopropan-2-yl)-5-(4-(trifluoromethyl)phenoxy)-2-naphthamide] | < 100 nM |
| CC(C)NC(=O)c1ccc2c(Oc3ccc(C(F)(F)F)cc3)cncc2c1 [Compound 93, N-isopropyl-4-(4-(trifluoromethyl)phenoxy)isoquinoline-7-carboxamide] | < 100 nM |
| C[C@H](NC(=O)c1ccc2c(Oc3ccc(C(F)(F)F)cc3)cccc2c1)c1nnnn1C [Compound 55, (S)—N-(1-(1-methyl-1H-tetrazol-5-yl)ethyl)-5-(4-(trifluoromethyl)phenoxy)-2-naphthamide] | 100 to 1000 nM |
| C[C@H](NC(=O)c1cnc2c(Oc3ccc(C(F)(F)F)cc3)cccc2c1)c1ccccn1 [Compound 19, N-[(1S)-1-(2-pyridyl)ethyl]-8-[4-(trifluoromethyl)phenoxy]quinoline-3-carboxamide] | < 100 nM |
| N#CNC(=O)c1ccc2c(Oc3ccc(C(F)(F)F)cc3)cccc2c1 [Compound 86, N-cyano-5-[4-(trifluoromethyl)phenoxy]naphthalene-2-carboxamide] | 100 to 1000 nM |
| C[C@@H](NC(=O)c1ccc2c(Oc3ccc(C(F)(F)F)cc3)cccc2c1)c1cccc(N)n1 [Compound 66, (R)—N-(1-(6-aminopyridin-2-yl)ethyl)-5-(4-(trifluoromethyl)phenoxy)-2-naphthamide] | < 100 nM |
| C[C@H](NC(=O)c1ccc2c(Oc3ccc(C(F)(F)F)cc3)cccc2c1)C1CN(C)C1 [Compound 127, (S)—N-(1-(1-methylazetidin-3-yl)ethyl)-5-(4-(trifluoromethyl)phenoxy)-2-naphthamide] | 1000 to 3000 nM |
| C[C@H](NC(=O)c1ccc2c(Oc3ccc(C(F)(F)F)cc3)cccc2c1)c1nnn(C)n1 [Compound 58, (S)—N-(1-(2-methyl-2H-tetrazol-5-yl)ethyl)-5-(4-(trifluoromethyl)phenoxy)-2-naphthamide] | < 100 nM |
| C[C@@H](NC(=O)c1ccc2c(Oc3ccc(C(F)(F)F)cc3)cccc2c1)C1CCN(CCO)CC1 [Compound 153, (R)-N-(1-(1-(2-hydroxyethyl)piperidin-4-yl)ethyl)-5-(4-(trifluoromethyl)phenoxy)-2-naphthamide] | 100 to 1000 nM |
| C[C@@H](NC(=O)c1ccc2c(Oc3ccc(C(F)(F)F)cc3)cccc2c1)C1CCC1 [Compound 59, (R)—N-(1-cyclobutylethyl)-5-(4-(trifluoromethyl)phenoxy)-2-naphthamide] | < 100 nM |
